These results are taken from patent US5688913A, “CS-1 peptidomimetics, compositions and methods of using the same” (Cytel Corporation, priority 1995, dated 1997).

Read-outs that look alike come from different tables or passages of the source. Square brackets hold non-standard residues; d marks the D form. Peptide text beside a SMILES is read from it. * marks the point of attachment. code Z = Europium label (diethylenetriaminepentaacetatoeuropium); NHOctadecyl = CCCCCCCCCCCCCCCCCCN*; NHPhenethyl = c1ccc(CCN*)cc1; Morpholide = C1CN(*)CCO1; PhAc = O=C(Cc1ccccc1)*; NHBn = c1ccc(CN*)cc1; Ahx = NCCCCCC(=O)O; NHNH2 = NN*

The test system of data set [1] is murine contact hypersensitivity. The settings on record: cited from earlier work.
The conditions of data set [2]: Elices et al. 1993; by proteolytic degradation; cited from earlier work.
Data set [3] relates to New Zealand white rabbits. Description: Treatment of asthmatic rabbits (house dust mite antigen challenge, crossover). Format: in vivo, rabbit. The procedure:
Six New Zealand white rabbits were immunized with house dust mite antigen from birth through four months of age. Upon immunization, three rabbits received a single nebulizer administration of the inhibitor peptide N-phenylacetyl-Leu-Asp-Phe-morpholinamide in aqueous 50 percent ethanol as diluent in an amount of 100 mg/kg, and the other three received diluent alone. All of the rabbits were challenged with house dust mite antigen about 15-30 minutes after administration of the peptide, with those animals not receiving peptide serving as controls.
Once immunized and challenged, the inflammatory state subsides to a basal level within about three weeks. The three animals used as controls were thereafter used as subjects for receipt of an inhibitor peptide, and the three rabbits that initially received the peptide can serve as controls.
Such a crossover study was done here. Thus, the three initial control rabbits were treated with the above inhibitor peptide in the above diluent at a time more than three weeks after the above study, and the three previous recipients of the peptide were administered the diluent alone. All six were than challenged again.
Initial pulmonary function, measured by dynamic compliance (Cdyn) and lung resistance (RL), and bronchoalveolar lavage (BAL) to obtain an effector cell count, here eosinophils, were conducted prior to administration of the peptide or diluent for both portions of this crossover study. Similar assays were then taken one-half hourly after challenge for six hours (early phase allergic reaction) and at 24 hours after challenge (late stage allergic reaction) for both portions of this study.
These studies were conducted by Dr. W. J. Metzger of East Carolina University, Greenville, N.C. as described by W. J. Metzger in CRC Handbook of Late Phase Reactions, W. Dorsch, ed., Chapter 35, CRC Press, Boca Raton, Fla. (1990) pages 347-362.
The results of this study for the pulmonary function parameters are shown in FIG. 4A and FIG. 4B, in which data for the challenged, inhibitor peptide-treated animals are shown as open circles and data for the challenged, untreated, control animals are shown in blackened circles.

The target in data set [4] is T1, VLA-4 (Homo sapiens, UniProt P05556+P13612). Description: cell-based. The class given is cell-based. Further details: host or cells: Jurkat (human T lymphoblastic line). Summed up: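 51Cr-labelled Jurkat cells (human T lymphoblastic) were preincubated 30 min at about 22 °C with peptide, then allowed to bind 30 min at 37 °C to wells coated with CS-1 peptide or CS-1-OVA. After washing, bound cells were lysed with SDS and counted. IC50 is the peptide concentration halving binding, normalized to plate controls.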
T1 sequence (P13612 34-1032): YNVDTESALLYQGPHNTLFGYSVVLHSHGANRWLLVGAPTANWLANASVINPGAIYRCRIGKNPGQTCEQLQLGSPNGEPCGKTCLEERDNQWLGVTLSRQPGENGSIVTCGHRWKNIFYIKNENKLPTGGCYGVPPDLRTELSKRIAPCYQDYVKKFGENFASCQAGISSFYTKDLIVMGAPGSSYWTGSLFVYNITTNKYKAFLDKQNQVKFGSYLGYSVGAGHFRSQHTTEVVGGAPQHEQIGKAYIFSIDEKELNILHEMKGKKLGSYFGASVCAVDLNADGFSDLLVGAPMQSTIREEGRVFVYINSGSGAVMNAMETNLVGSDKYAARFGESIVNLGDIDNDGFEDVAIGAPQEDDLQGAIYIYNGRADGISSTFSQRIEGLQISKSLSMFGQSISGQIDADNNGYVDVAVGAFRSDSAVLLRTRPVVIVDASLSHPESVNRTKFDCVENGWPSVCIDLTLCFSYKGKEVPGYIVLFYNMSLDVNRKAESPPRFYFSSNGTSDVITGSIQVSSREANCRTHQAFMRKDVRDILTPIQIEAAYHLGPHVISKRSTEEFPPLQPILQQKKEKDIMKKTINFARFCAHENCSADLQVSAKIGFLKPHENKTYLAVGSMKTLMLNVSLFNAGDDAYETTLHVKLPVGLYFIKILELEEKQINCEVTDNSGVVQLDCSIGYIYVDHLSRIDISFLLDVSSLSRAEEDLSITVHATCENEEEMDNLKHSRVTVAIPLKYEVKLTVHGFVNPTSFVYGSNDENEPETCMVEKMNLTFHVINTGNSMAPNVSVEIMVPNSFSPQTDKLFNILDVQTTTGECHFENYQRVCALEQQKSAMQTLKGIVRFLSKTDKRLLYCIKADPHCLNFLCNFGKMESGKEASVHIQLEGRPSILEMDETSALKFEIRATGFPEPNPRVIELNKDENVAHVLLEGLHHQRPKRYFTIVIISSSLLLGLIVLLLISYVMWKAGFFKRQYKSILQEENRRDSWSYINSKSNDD
T1 sequence (P05556 21-798): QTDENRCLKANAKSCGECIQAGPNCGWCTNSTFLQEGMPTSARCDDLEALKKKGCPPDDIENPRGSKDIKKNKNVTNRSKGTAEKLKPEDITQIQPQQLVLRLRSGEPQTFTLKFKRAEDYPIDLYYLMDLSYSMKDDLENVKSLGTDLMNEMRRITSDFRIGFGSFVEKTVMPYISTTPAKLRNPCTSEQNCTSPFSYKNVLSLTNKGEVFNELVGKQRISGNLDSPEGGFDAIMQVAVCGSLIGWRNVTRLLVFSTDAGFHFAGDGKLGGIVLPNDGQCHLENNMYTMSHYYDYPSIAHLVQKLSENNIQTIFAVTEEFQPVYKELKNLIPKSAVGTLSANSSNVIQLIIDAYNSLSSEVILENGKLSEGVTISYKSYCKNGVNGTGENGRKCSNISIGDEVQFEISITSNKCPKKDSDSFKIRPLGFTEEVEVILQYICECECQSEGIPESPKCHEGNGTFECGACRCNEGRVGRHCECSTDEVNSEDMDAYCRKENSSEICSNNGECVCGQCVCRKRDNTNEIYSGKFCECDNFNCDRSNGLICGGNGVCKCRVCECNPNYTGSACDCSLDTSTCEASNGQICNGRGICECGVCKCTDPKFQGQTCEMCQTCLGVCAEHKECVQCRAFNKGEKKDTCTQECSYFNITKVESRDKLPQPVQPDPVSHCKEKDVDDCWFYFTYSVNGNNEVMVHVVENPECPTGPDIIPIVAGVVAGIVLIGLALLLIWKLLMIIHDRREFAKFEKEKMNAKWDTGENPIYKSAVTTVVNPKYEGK

Data set [5] can be described thus: Retention of potency in PBS containing 10 percent serum. The settings on record: PBS at 7.2-7.4 containing 10 percent mouse or human serum.
Another data set is described as follows: Water solubility. Format: physicochemical.
In data set [6] the target is T1, VLA-4. The settings on record: cited from earlier work.
Where [7] appears, read: 100 mg/kg single nebulizer administration, early phase 2-4 hours, versus challenged controls.
Where [8] appears, read: 100 mg/kg single nebulizer administration, late phase 24 hours, versus challenged controls.
Setting [9] is: normalized IC50 relative to standard peptide of SEQ ID NO:3 (=1), about one-tenth or less of the standard is assigned zero.

As to `CC[C@H](C)[C@H](NC(=O)[C@H](CCC(=O)O)NC(=O)[C@@H]1CCCN1C(=O)CNC(=O)[C@H](Cc1c[nH]cn1)NC(=O)[C@H](CC(C)C)NC(=O)[C@H](CC(N)=O)NC(=O)[C@@H]1CCCN1C(=O)[C@H](Cc1c[nH]cn1)NC(=O)[C@@H]1CCCN1C(=O)[C@H](CC(C)C)NC(=O)[C@@H](NC(=O)[C@@H](NC(=O)[C@H](CC(C)C)NC(=O)[C@H](CCC(N)=O)NC(=O)[C@@H]1CCCN1C(=O)[C@H](CC(C)C)NC(=O)[C@H](CCC(=O)O)NC(=O)[C@@H](N)CC(=O)O)C(C)C)[C@@H](C)O)C(=O)N[C@@H](CC(C)C)C(=O)N[C@@H](CC(=O)O)C(=O)N[C@H](C(=O)N1CCC[C@H]1C(=O)N[C@@H](CO)C(=O)N[C@H](C(=O)O)[C@@H](C)O)C(C)C` [CS-1 peptide] (H-DELPQLVTLPHPNLHGPEILDVPST-OH), the “inhibition of contact hypersensitivity” value in data set [1] (Elices et al. 1993) was “unable to reproduce inhibition”. Also, the “inhibition of recruitment of T lymphocytes to skin inflammatory sites” value in data set [1] (Ferguson et al. 1991) is on record as “partially inhibited”. In data set [2], the “clearance from blood circulation” value is given as “rapidly cleared”.

In general, IC50 refers to the concentration needed to halve the response being measured. As for `CC(C)C[C@H](NC(=O)Cc1ccccc1)C(=O)N[C@@H](CC(=O)O)C(=O)N[C@@H](Cc1ccccc1)C(=O)N1CCOCC1` [X L D F Z phenylacetyl morpholinamide, N-phenylacetyl-Leu-Asp-Phe-morpholinamide] (PhAc-Leu-Asp-Phe-Morpholide), in data set [3] (setting [7]), the “Cdyn, % Reduction, Early phase” value stood at 94.4% and the “RL, % Reduction, Early phase” value stood at 80.1%. In data set [3] (setting [8]), the “Cdyn, % Reduction, Late phase” value was 86.6% and the “RL, % Reduction, Late phase” value is listed as 82.6%. In addition, the “Cdyn value over six hours after challenge” value in data set [3] (FIG. 4A, 100 mg/kg nebulized) is on record as “stayed at about the initial value”. Further, the “RL values over six hours after challenge” value in data set [3] (FIG. 4B, 100 mg/kg nebulized) is listed as ≤ 200% of initial value. Moreover, the IC50 on VLA-4 [4] (Jurkat cells / solid phase-bound CS-1, read-out: absolute IC50 value) fell in the range of 0.18 to 0.3 µM. Moreover, the “RELATIVE POTENCY (relative peptide inhibition of VLA-4 binding CS-1)” value at VLA-4 [4] (setting [9]) was 844. Moreover, in data set [5], the “loss of potency after 24 hours” value is on record as “no loss of potency”.

With `CC(C)C[C@H](NC(=O)Cc1ccccc1)C(=O)N[C@@H](CC(=O)O)C(=O)N[C@@H](Cc1c[nH]c2ccccc12)C(=O)N1CCC[C@@H]1C(N)=O` [X L D W p phenylacetyl amide] (PhAc-LDW[dP]-NH2), the “RELATIVE POTENCY (relative peptide inhibition of VLA-4 binding CS-1)” value on VLA-4 [4] (setting [9]) was 184.

With `CC(C)C[C@H](NC(=O)Cc1ccccc1)C(=O)N[C@@H](CC(=O)O)C(=O)N[C@@H](Cc1ccc(O)cc1)C(=O)N1CCOCC1` [X L D Y Z phenylacetyl morpholinamide, N-phenylacetyl-Leu-Asp-Tyr-morpholinamide] (PhAc-Leu-Asp-Tyr-Morpholide), the “RELATIVE POTENCY (relative peptide inhibition of VLA-4 binding CS-1)” value at VLA-4 [4] (setting [9]) stood at 313.

Consider `CC(C)C[C@H](NC(=O)Cc1ccccc1)C(=O)N[C@@H](CC(=O)O)C(=O)N[C@@H](Cc1ccc(O)cc1)C(=O)N1CCC[C@@H]1C(N)=O` [X L D Y p phenylacetyl amide, N-phenylacetyl-Leu-Asp-Tyr-D-Pro-NH2] (PhAc-LDY[dP]-NH2), for which the “RELATIVE POTENCY (relative peptide inhibition of VLA-4 binding CS-1)” value is reported as 640 at VLA-4 [4] (setting [9]) and 405 at VLA-4 [4] (normalized IC50 relative to standard peptide of SEQ ID NO:3 (=1), about one-tenth or less of the standard is assigned zero, listed as X L D Y P phenylacetyl amide).

For `CC(C)C[C@H](NC(=O)Cc1ccccc1)C(=O)N[C@@H](CC(=O)O)C(=O)NNC(=O)OC(C)(C)C` [X L D Z phenylacetyl N'-t-Boc-hydrazide], the “RELATIVE POTENCY (relative peptide inhibition of VLA-4 binding CS-1)” value at VLA-4 [4] (setting [9]) is reported as 2.

Regarding `CC(C)C[C@H](NC(=O)Cc1ccccc1)C(=O)N[C@@H](CC(=O)O)C(=O)NCc1ccccc1` [X L D Z phenylacetyl benzylamide] (PhAc-Leu-Asp-NHBn), on VLA-4 [4] (setting [9]), the “RELATIVE POTENCY (relative peptide inhibition of VLA-4 binding CS-1)” value was 19.

Regarding `CC(C)C[C@H](NC(=O)Cc1ccccc1)C(=O)N[C@@H](CC(=O)O)C(=O)NC(c1ccccc1)c1ccccc1` [X L D Z phenylacetyl benzylhydrylamide], at VLA-4 [4] (setting [9]), the “RELATIVE POTENCY (relative peptide inhibition of VLA-4 binding CS-1)” value was 3.

On to `CC(C)C[C@H](NC(=O)Cc1ccccc1)C(=O)N[C@@H](CC(=O)O)C(=O)N(Cc1ccccc1)Cc1ccccc1` [X L D Z phenylacetyl dibenzylamide], for which, on VLA-4 [4] (setting [9]), the “RELATIVE POTENCY (relative peptide inhibition of VLA-4 binding CS-1)” value was 0.

For the molecule `CC(C)C[C@H](NC(=O)Cc1ccccc1)C(=O)N[C@@H](CC(=O)O)C(=O)NN` [X L D Z phenylacetyl hydrazide] (PhAc-Leu-Asp-NHNH2), on VLA-4 [4] (setting [9]), the “RELATIVE POTENCY (relative peptide inhibition of VLA-4 binding CS-1)” value was found to be 1.

Take `CC(C)C[C@H](NC(=O)Cc1ccccc1)C(=O)N[C@@H](CC(=O)O)C(=O)NCCc1ccccc1` [X L D Z phenylacetyl phenethylamide] (PhAc-Leu-Asp-NHPhenethyl): the “RELATIVE POTENCY (relative peptide inhibition of VLA-4 binding CS-1)” value at VLA-4 [4] (setting [9]) came out at 19.

On to `CC(C)C[C@H](NC(=O)[C@H](N)Cc1ccccc1)C(=O)N[C@@H](CC(=O)O)C(=O)N[C@H](C(=O)N1CCC[C@@H]1C(=O)O)C(C)C` [f L D V p free amine free acid] (H-[dF]LDV[dP]-OH), for which the “RELATIVE POTENCY (relative peptide inhibition of VLA-4 binding CS-1)” value on VLA-4 [4] was determined as 0.

On to `CCCCCCCCCCCCCCCCCCNC(=O)CCCCCNC(=O)[C@@H]1CCCN1C(=O)[C@H](Cc1ccccc1)NC(=O)[C@H](CC(=O)O)NC(=O)[C@H](CC(C)C)NC(=O)Cc1ccccc1` [phenylacetyl-Leu-Asp-Phe-Pro-NH(CH2)5 C(O)NHC18 H37] (PhAc-LDFP[Ahx]-NHOctadecyl), for which, in the data set “Water solubility”, the water solubility entry is “not water-soluble”. In addition, the “RELATIVE POTENCY (relative peptide inhibition of VLA-4 binding CS-1)” value at VLA-4 [4] (setting [9]) was 1.

On to Leu-Asp-Val [LDV], for which the “affinity of VLA-4 lower than for the native CS-1 25-mer” value at VLA-4 [6] is “at least two”.

For the molecule “Z X F L D F p: X = ε-amidocaproyl, Z = Europium label (diethylenetriaminepentaacetatoeuropium), C-terminal amide ({code Z-ε‑amidocaproyl}-FLDF[dP]-NH2; also: europium chelate)”, in the data set with VLA-4 [4], the “binding inhibition better than the standard 10-mer peptide of SEQ ID NO:3” value is “about 120 times”. For the same molecule, the “RELATIVE POTENCY (relative peptide inhibition of VLA-4 binding CS-1)” value in the data set with VLA-4 [4] (setting [9]) was determined as 118.
